{"source": "patent US9480695B2", "about": "“Methods for inducing orexin neurons and agent for treating narcolepsy or eating disorder” (THE UNIVERSITY OF TOKYO, priority 2011, dated 2016)", "assay_type_in_all_cases": "cell-based", "key": {"[1]": {"tested_on": "human-derived pluripotent stem cell", "assay": "Hcrt expression in human-derived pluripotent stem cell (similar effect to Experiment 1)", "details": "stated as similar to Experiment 1"}, "[2]": {"tested_on": "Mouse ES cells (J1 strain)", "assay": "Hcrt expression with ManNAc plus Sirt inhibitor or Ogt inhibitor, neural differentiation from mouse ES cell, RT-PCR", "details": "ManNAc 1.0 mM from 0th day, BADGP 1 mM or 5 mM on 7th day, collected 10th day; FIG. 9", "description": "According to the same manner as that described in Example 1, mouse ES cells (J1 strain) were cultured for 10 days for differentiation induction into a nerve cell. A protocol of inducing differentiation into a nerve cell is shown in the upper column of FIG. 11. From the initiation of differentiation culturing (0th day), ManNAc was added to a neural differentiation medium so that the concentration became 1.0 mM, and the medium was exchanged on 4th and 7th days of differentiation culturing. In addition, from 4th day of differentiation culturing, 5 nM recombinant human BMP4 (Wako) was added. On 7th day of differentiation culturing, EX-527 (SIGMA-ALDRICH) was added to a neural differentiation medium so that the concentration became 50 nM or BADGP (SIGMA-ALDRICH) was added to a neural differentiation medium so that the concentration became 1 or 5 mM, and on 10th day of differentiation culturing, cells were collected and subjected to RT-PCR. The conditions of RT-PCR are the same as those of Example 1."}, "[3]": {"tested_on": "human iPS cell strain 201B7", "assay": "Hcrt expression with ManNAc plus Sirt inhibitor and Ogt inhibitor, neural differentiation from human iPS cell, RT-PCR", "details": "ManNAc 1.0 mM from 0th day, EX-527 50 nM and/or BADGP 5 mM on 14th day, collected 20th day; FIG. 10", "description": "A human iPS cell strain 201B7 (HSP0001) was obtained from Riken BioResource Center via National BioResource Project (MEXT, Japan). The human iPS cell was maintained on a feeder layer of a mitomycin C-treated STO/Neo resistant/LIF (SNL) feeder cell in a primate ES medium (ReproCELL) complemented with 5 ng/mL recombinant human bFGF (Wako). The human iPS cell was co-cultured with PA6 for 20 days, for differentiation induction into a nerve with a SIDA and BMP4 system. From 7th day, 5 nM BMP4 was complemented. A detailed protocol of differentiation induction into a nerve cell is shown in the lower column of FIG. 11. From the initiation of differentiation culturing (0th day), ManNAc was added to a neural differentiation medium so that the concentration became 1.0 mM, and on 7th, 10th and 14th days of differentiation culturing, the medium was exchanged. In addition, from 7th day of differentiation culturing, 5 nM recombinant human BMP4 (Wako) was added. On 14th day of differentiation culturing, EX-527 (SIGMA-ALDRICH) was added to a neural differentiation medium so that the concentration became 50 nM, or BADGP (SIGMA-ALDRICH) was added to a neural differentiation medium so that the concentration became 5 mM, and on 20th day of differentiation culturing, cells were collected and subjected to RT-PCR. The conditions of RT-PCR are the same as those of Example 1."}, "[4]": {"tested_on": "Mouse ES cells (J1 strain)", "assay": "Induction of Hcrt expression in neural differentiation from mouse ES cells, SDIA differentiation culture system, RT-PCR", "description": "Mouse ES cells (J1 strain) which had been maintained in a medium for an ES cell [DMEM (Wako) added with 15% FBS (Biowest), 1 mM sodium pyruvate (Invitrogen), […] (Invitrogen), 2 mM L-glutamine (Invitrogen), 1 mM non essential amino acid (Invitrogen), 50 U/ml penicillin/50 μg/ml streptomycin (Invitrogen), 2000 U leukemia inhibitory factor (Chemicon, CA)] were seeded on a 10 cm culture dish so that the cell count became 1×10^5 cells per culture dish on which PA6 stromal cells had been seeded in advance, and differentiation induction was performed in a medium for neural differentiation [Glasgow MEM (Invitrogen) added with 10% KSR (Invitrogen), […] (Invitrogen), 1 mM non essential amino acid (Invitrogen), 50 U/ml penicillin/50 μg/ml streptomycin (Invitrogen)] for 10 days. On 4th and 7th days of differentiation culturing, the medium was exchanged. In addition, from 4th day of differentiation culturing, 5 nM recombinant human BMP4 (Wako) was added (FIG. 1). On 10th day of differentiation culturing, cells were collected and pelletized by a centrifugation operation to remove the culture medium. Thereafter, the pellets were immediately frozen in liquid nitrogen and stored at −80° C. until use.\nThe total RNA was extracted from the collected cells using RNeasy plus Mini Kit (QIAGEN). Then, a reverse transcription reaction was performed in a reaction liquid containing 1 μg of the total RNA, and Oligo (dT) using SuperScript III First Strand Synthesis System (Invitrogen) to synthesize a cDNA.\nA PCR reaction was performed on a 10 μl scale, 1 U of LA-Taq DNA Polymerase (Takara) was added to 0.5 μl of a cDNA, 5 μl of 2×GC Buffer I, each 200 μM of dNTP, 1.5 mM MgCl2, and each primer having a final concentration of 0.2 μM, thermal denaturation was performed at 95° C. for 3 minutes, and the reaction was performed under the condition of (30 seconds at 95° C., 30 seconds at 55° C., and 30 seconds at 72° C.)×35 cycles (20 cycles in the case of Actb). The primers used are shown below.\nEach PCR product was electrophoresed on a 2% agarose gel, stained with ethidium bromide, and a band was observed by UV irradiation."}}, "data": [{"smiles": "CC(=O)N[C@@H]1C(O)O[C@H](CO)[C@@H](O)[C@@H]1O", "note": "(stereo partly drawn) [ManNAc, N-acetyl-D-mannosamine]", "values": [{"measurement": "Expression of Hcrt in a human-derived pluripotent stem cell", "setting": "[1]", "result": "a similar effect was obtained"}, {"measurement": "Expression of an orexin gene (Hcrt)", "setting": "[2]", "result": "expression of Hcrt which had been recognized in a ManNAc-added section"}, {"measurement": "Expression of an orexin gene (Hcrt)", "setting": "[3]", "result": "recognized in a ManNAc-added section and an EX-527-added section to the same extent"}, {"measurement": "Level of Hcrt expression by addition period", "setting": "[4]; 1.0 mM ManNAc, added on 4th to 10th, 7th to 10th and 0th to 10th days versus 0th to 4th and 0th to 7th days", "result": "high expression was observed in the section in which ManNAc was added to a medium on and after 7th day of differentiation"}, {"measurement": "Expression of Hcrt with changed time of addition", "setting": "[4]; 1.0 mM, addition time varied, FIG. 3", "result": "expression of Hcrt was observed only in a ManNAc-added section at any addition time"}, {"measurement": "Expression of an orexin gene (Hcrt)", "setting": "[4]; added from initiation of differentiation culturing at 0.2 and 1.0 mM, cells collected on 10th day, FIG. 2", "result": "expression of Hcrt was recognized only in a ManNAc-added section"}]}]}
